{
  "source": "patent US20220267374A1",
  "about": "“IMMUNITY INDUCER AND PHARMACEUTICAL COMPOSITION FOR PREVENTING OR TREATING AGING-RELATED DISEASES” (priority 2019, published 2022)",
  "key": {"arteriosclerotic plaque": {"test_system": "arteriosclerotic plaque", "test": "Detection of arteriosclerotic plaque (Oil Red O staining)", "assay_type": "in vivo, ApoE/Gpnmb-DTR mice", "conditions": "HFD from 4 to 16 weeks of age, s.c. vaccination at 8 weeks of age; vs control vaccine; FIGS. 2J, 2K", "procedure": "Arteriosclerotic plaques were detected by Oil Red O staining. Briefly, autopsy removed adventitial fat to open the entire aorta and fixed the aorta flat in 4 v/v % paraformaldehyde at room temperature for 12 hours. Subsequently, the fixed aorta was washed by immersing in 60 v/v % isopropyl alcohol for 1 minute. Subsequently, the aorta was incubated at 37° C. for 15 minutes in 0.5% of Oil Red O (Sigma-Aldrich) solution (diluted with 60 v/v % isopropyl alcohol). After staining, the sample was briefly immersed in a 60 v/v % isopropyl alcohol solution and then washed with double distilled water. Atherosclerotic lesions were stained red with Oil Red O (refer to FIG. 1G). For the Oil Red O stained region, the plaque region was quantified by Image-J software (refer to FIG. 1H). […]\n(§1) Detection of arteriosclerotic plaque and analysis of Gpnmb-dependent luciferase activity were performed using the same method as in “6.” and “2.” of Reference Example 1, except that ApoE/Gpnmb-DTR mice (16 weeks of age) bred while feeding HFD for 12 weeks from 4 to 16 weeks of age and administered with peptide vaccine 1 or a control vaccine by subcutaneous injection at a time point of 8 weeks of age were used (refer to FIG. 2J). The Oil Red O stained region was quantified by Image-J software (refer to FIG. 2K). […]"}, "[1]": {"test": "Survival curve (Kaplan-Meier)", "assay_type": "in vivo, Zmpste24 KO mice", "conditions": "normal diet, s.c. vaccination at 10 weeks of age; regardless of gender; FIG. 2M", "procedure": "In addition, Zmpste24-deficient (KO) mice (model of Hutchinson-Gilford progeria syndrome, MGI: 2158363) were used as a model of premature aging mice. Generation and genotyping of Zmpste24 KO mice followed the previous report (http://www.informatics.jax.org/allele/MGI:2158363).\nZmpste24 KO mice were bred on normal diet. For some Zmpste24 KO mice, peptide vaccine 1 was administered by subcutaneous injection at a time point of 10 weeks of age (about 50 weeks of age in C57BL/6 mice). Survival curves were calculated by the Kaplan-Meier method and compared by a log-rank test (refer to FIG. 2M)."}, "GPNMB-positive cells": {"test_system": "GPNMB-positive cells", "test": "Gpnmb-dependent luciferase activity in the aorta", "assay_type": "in vivo, ApoE/Gpnmb-DTR mice", "conditions": "HFD from 4 to 16 weeks of age, s.c. vaccination at 8 weeks of age; vs control vaccine; FIG. 2J", "procedure": "Gpnmb-DTR mouse bred by feeding normal diet or HFD for 4 weeks, and Gpnmb-DTR mouse bred by feeding HFD for 4 weeks, and then injecting DT (50 μg/kg body weight) at 2-week intervals (12 weeks of age and 14 weeks of age) intraperitoneally twice while continuing to feed HFD (16 weeks of age) were subjected to in vivo luciferase imaging analysis using the IVIS imaging system (Perkin Elmer). Mice were shaved ventrally, anesthetized with isoflurane (Wako Pure Chemicals Industries), and injected intraperitoneally with luciferin (150 mg/kg body weight) according to the manufacturer's instructions (Vivo-Glo; Promega). Luciferase activity was monitored 5 minutes after luciferin administration. Signals were analyzed using Living Image software (Perkin Elmer) to quantify luciferase activity. […]\nas §1"}, "[2]": {"test": "Metabolic test (glucose tolerance test and insulin tolerance test)", "assay_type": "in vivo, C57BL/6 mice", "conditions": "HFD-fed mice, 16 weeks of age, s.c. vaccination at 8 weeks of age; compared to control vaccine; FIG. 2I", "procedure": "Mice were bred individually from 1 week before the test. On the day of the glucose tolerance test (GTT), mice were fasted for 6 hours, followed by intraperitoneal injection of glucose at a dose of 1 g/kg (body weight) in the early afternoon. For the insulin tolerance test (ITT), mice were intraperitoneally administered with human insulin (1 U/kg (body weight)). After administration of glucose or insulin, tail venous blood was collected 0, 15, 30, 60 and 120 minutes later, and the blood glucose level was measured with a glucose analyzer (Sanwa Chemical Research Institute).\nA metabolic test was performed using the same method as in “5.” of Reference Example 1, except that C57BL/6 mice (16 weeks of age) bred by feeding HFD from 4 weeks of age and administered with peptide vaccine 1, peptide vaccine 2, or control vaccine by subcutaneous injection at a time point of 8 weeks of age were used. In FIG. 2I, “Cont vaccine” is a C57BL/6 mouse administered with a control vaccine, “Gpnmb vaccine 1” is a C57BL/6 mouse administered with peptide vaccine 1, and “Gpnmb vaccine 2” is a C57BL/6 mouse administered with peptide vaccine 2."}},
  "note": "Ends that are not written are not given here.",
  "data": [
    {"sequence": "RRGDGRWKD (also: KLH conjugate; listed as Mus musculus) [peptide vaccine 1, peptide of positions 63 to 71 of mouse GPNMB protein]", "values": [
      {"measurement": "development of atheroma (arteriosclerotic plaque, Oil Red O stained region)", "setting": "arteriosclerotic plaque", "value": "significantly decreased"},
      {"measurement": "lifespan (survival curve)", "setting": "[1]", "value": "extended"},
      {"measurement": "Gpnmb-dependent luciferase activity in the aorta", "setting": "GPNMB-positive cells", "value": "decreased"},
      {"measurement": "metabolic abnormality induced by HFD intake (glucose tolerance test and insulin tolerance test)", "setting": "[2]", "value": "significantly improved"}
    ]}
  ]
}
